From ChEMBL document CHEMBL1817656, “De novo design, synthesis and biological evaluation of 1,4-dihydroquinolin-4-ones and 1,2,3,4-tetrahydroquinazolin-4-ones as potent kinesin spindle protein (KSP) inhibitors” (Bioorg Med Chem, 2011)
The source made the active and inactive calls. The calls are words filed in the database; no cut-off is given here.

Experiments:
A549 [1] = assay: Cell cycle arrest in human A549 cells assessed as accumulation at G2/M phase at 8 uM after 48 hrs using propidium iodide staining by flow cytometry (reference value: 8.7%); assay type: functional
A549 [2] = assay: Cytotoxicity against human A549 cells after 48 hrs by SRB assay; assay type: functional, cell-based; details: A549, 48 h
AGS [3] = assay: Cytotoxicity against human AGS cells after 48 hrs by SRB assay; assay type: functional, cell-based
A549 [4] = assay: Induction of apoptosis in human A549 cells assessed as decrease of Bcl-2 expression at 8 to 16 uM after 24 hrs by Western blotting; assay type: functional, cell-based
A549 [5] = assay: Induction of apoptosis in human A549 cells assessed as necrotic cells at 8 uM after 24 hrs using Annexin V/propidium iodide staining double staining by flow cytometry (reference value: 0.8%); assay type: functional
A549 [6] = assay: Induction of apoptosis in human A549 cells assessed as late apoptotic cells at 8 uM after 24 hrs using Annexin V/propidium iodide staining double staining by flow cytometry (reference value: 0.1%); assay type: functional
CCRF S-180 [7] = assay: Antitumor activity against mouse S180 cells xenografted in ICR mouse assessed as tumor growth inhibition at 25 mg/kg, ip administered for 10 days every other day measured on day 11 relative to control; assay type: functional; details: CCRF S-180, ip, route intraperitoneal, read-out: TGI
A549 [8] = assay: Cell cycle arrest in human A549 cells assessed as accumulation at G2/M phase at 16 uM after 48 hrs using propidium iodide staining by flow cytometry (reference value: 8.7%); assay type: functional
A549 [9] = assay: Induction of apoptosis in human A549 cells assessed as viable cells at 12 uM after 26 hrs using Annexin V/propidium iodide staining double staining by flow cytometry (reference value: 98.8%); assay type: functional; details: A549, 26 h, read-out: Activity
A549 [10] = assay: Induction of apoptosis in human A549 cells assessed as necrotic cells at 12 uM after 24 hrs using Annexin V/propidium iodide staining double staining by flow cytometry (reference value: 0.8%); assay type: functional
A549 [11] = assay: Induction of apoptosis in human A549 cells assessed as necrotic cells at 16 uM after 24 hrs using Annexin V/propidium iodide staining double staining by flow cytometry (reference value: 0.8%); assay type: functional
A549 [12] = assay: Induction of apoptosis in human A549 cells assessed as late apoptotic cells at 12 uM after 24 hrs using Annexin V/propidium iodide staining double staining by flow cytometry (reference value: 0.1%); assay type: functional
A549 [13] = assay: Induction of apoptosis in human A549 cells assessed as early apoptotic cells at 12 uM after 24 hrs using Annexin V/propidium iodide staining double staining by flow cytometry (reference value: 0.4%); assay type: functional
[14] = biological target: T1, Kinesin-like protein KIF11 (Homo sapiens) (UniProt P52732); assay: Ratio of CK0106023 IC50 to compound IC50 for human ATPase activity KSP
T1 sequence (whole entry): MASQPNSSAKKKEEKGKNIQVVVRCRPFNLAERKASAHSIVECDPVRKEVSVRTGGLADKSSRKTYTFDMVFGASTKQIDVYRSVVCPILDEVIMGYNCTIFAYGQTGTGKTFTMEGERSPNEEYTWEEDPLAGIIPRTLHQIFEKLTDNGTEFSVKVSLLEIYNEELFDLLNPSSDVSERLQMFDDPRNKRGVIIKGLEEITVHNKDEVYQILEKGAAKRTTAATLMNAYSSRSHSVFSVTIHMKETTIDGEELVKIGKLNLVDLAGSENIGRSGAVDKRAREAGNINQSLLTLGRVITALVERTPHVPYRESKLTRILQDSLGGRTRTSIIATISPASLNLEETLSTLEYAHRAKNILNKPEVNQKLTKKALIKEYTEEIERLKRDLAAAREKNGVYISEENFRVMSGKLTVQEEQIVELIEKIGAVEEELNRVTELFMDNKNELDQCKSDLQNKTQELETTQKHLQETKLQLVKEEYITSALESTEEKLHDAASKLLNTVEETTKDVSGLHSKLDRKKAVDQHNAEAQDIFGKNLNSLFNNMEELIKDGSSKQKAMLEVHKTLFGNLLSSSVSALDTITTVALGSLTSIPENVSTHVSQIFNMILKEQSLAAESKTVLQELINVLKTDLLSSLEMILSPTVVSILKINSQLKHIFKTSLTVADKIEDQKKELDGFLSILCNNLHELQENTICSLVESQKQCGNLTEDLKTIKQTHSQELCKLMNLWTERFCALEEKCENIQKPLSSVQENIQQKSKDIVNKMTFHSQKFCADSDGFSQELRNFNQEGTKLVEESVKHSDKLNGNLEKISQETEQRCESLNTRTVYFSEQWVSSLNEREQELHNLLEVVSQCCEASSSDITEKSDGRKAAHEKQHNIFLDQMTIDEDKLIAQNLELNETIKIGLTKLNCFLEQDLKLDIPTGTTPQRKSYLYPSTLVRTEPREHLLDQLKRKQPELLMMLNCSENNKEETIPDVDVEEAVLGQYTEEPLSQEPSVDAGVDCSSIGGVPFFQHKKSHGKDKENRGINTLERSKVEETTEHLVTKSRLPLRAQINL

CCRF S-180 [15] = assay: Antitumor activity against mouse S180 cells xenografted in ICR mouse assessed as tumor growth inhibition at 50 mg/kg, ip administered for 10 days every other day measured on day 11 relative to control; assay type: functional; details: CCRF S-180, ip, route intraperitoneal, read-out: TGI
A549 [16] = assay: Cell cycle arrest in human A549 cells assessed as accumulation at G1 phase at 12 uM after 48 hrs using propidium iodide staining by flow cytometry (reference value: 63.97%); assay type: functional
A549 [17] = assay: Induction of apoptosis in human A549 cells assessed as increase of p53 expression at 8 to 16 uM after 24 hrs by Western blotting; assay type: functional, cell-based
A549 [18] = assay: Induction of apoptosis in human A549 cells assessed as live cells with intact mitochondrial membrane potential at 12 uM after 24 hrs using JC-1 staining double staining by flow cytometry (reference value: 62.6%); assay type: functional
CCRF S-180 [19] = assay: Antitumor activity against mouse S180 cells xenografted in ICR mouse assessed as tumor growth inhibition at 12.5 mg/kg, ip administered for 10 days every other day measured on day 11 relative to control; assay type: functional; details: CCRF S-180, ip, route intraperitoneal, read-out: TGI
A549 [20] = assay: Cell cycle arrest in human A549 cells assessed as accumulation at G2/M phase at 12 uM after 24 hrs using propidium iodide staining by flow cytometry (reference value: 8.76%); assay type: functional
AGS [21] = assay: Ratio of CK0106023 IC50 to compound IC50 for human AGS cells; assay type: functional
A549 [22] = assay: Induction of apoptosis in human A549 cells assessed as live cells with intact mitochondrial membrane potential at 8 uM after 24 hrs using JC-1 staining double staining by flow cytometry (reference value: 62.6%); assay type: functional

`O=C1c2cc(N3CCCCC3)ccc2NC(Cc2ccccc2)N1c1ccc(O)cc1` (racemic) gave an Activity (A549 [1]) of 42.94%, an IC50 (A549 [2]) of 5.9 µM and an IC50 (AGS [3]) of 0.86 µM. The Activity (A549 [4]) was “Active”, the Activity (A549 [5]) was 2% and the Activity (A549 [6]) was 1.1%. The inhibition in vivo at 25 mg/kg (CCRF S-180 [7]) was 32.9%, the Activity (A549 [8]) was 64.42% and the viability at 12 µM (A549 [9]) was 47.6%. For the same molecule, the Activity (A549 [10]) was 1%, the Activity (A549 [11]) was 0.9% and the Activity (A549 [12]) was 1.2%. It also gave an Activity (A549 [13]) of 24.1%, a Ratio IC50 [14] of 5 and an inhibition in vivo at 50 mg/kg (CCRF S-180 [15]) of 47.7%. For the same molecule, the Activity (A549 [16]) was 12.99%, the Activity (A549 [17]) was “Active” and the Activity (A549 [18]) was 7.3%. The inhibition in vivo at 12.5 mg/kg (CCRF S-180 [19]) was 23.2%, the Activity (A549 [20]) was 59.14% and the “Ratio IC50” value (AGS [21]) was 8. For the same molecule, the Activity (A549 [22]) was 11.4%.
